Reference: US5232923A, “Catechol derivatives and pharmaceutical preparations containing same” (Mitsui Toatsu Chemicals, Incorporated, priority 1988, dated 1993)

These compounds were tested on production and secretion of NGF in mouse brain astroglial cells (assay: Promoting activity for the production and secretion of NGF in mouse brain astroglial cells (ELISA of medium after 24 h)). Settings: Mus musculus, 24 h, Table 4, sample concentration 0.2 mM, fold increase over control, read-out: NGF Increase Ratio.
Format: cell-based
Method: Promoting activity for the production and secretion of NGF in mouse brain astroglial cells
The experiment was performed by inducing astroglial cells from the mouse forebrain to a culture system according to the procedures of S. Furukawa et al. which is described in Biochem. Biophys. Res. Commun., 136, 57-63 (1986).
Forebrains of 8-days old mice were dissected out and cut into small pieces. The pieces were washed with calcium- and magnesium-free phosphate-bufferedsaline (hereinafter abbreviated as PBS), treated with 0.25% trypsin containing PBS at 37° C. for 30 minutes and triturated with a Pasteur pipet to give a suspension. Cells and cell clumps were recovered by centrifugation at 200 xg for 5 minutes. They were cultured in Dulbecco modified Eagle's medium (a product of Gibco Co. hereinafter abbreviated as DMEM) containing 10% fetal calf serum, 50 μ units/ml of penicillin, and 50 μg/ml of streptomycin, for 10 to 14 days with medium changes every 3 days. After completing confluency, the cells were dissociated by trypsin treatment and recultured in new culture flasks. This procedure was repeated further twice and more. The culture became a uniform cell cluster. The cell cluster for use in this invention can be stained not less than 97% in accordance with the PAP staining method (peroxidase/[…] staining method) using anti-human glial fibrillar acidic protein (GFAP) rabbit antiserum. The cells will hereinafter be referred to as astroglial cells.
Astroglial cells were innoculated in 24-well plates having a well surface area of 2.1 cm^2 (a product of Falcon Co.) at a cell density of about 3×10^4 cells/well and cultured for 3 days in DMEM medium supplemented with 10% of fetal calf serum. After completing confluency about ([…]), the medium was changed to DMEM medium (0.5 ml/well) supplemented with 0.5% of bovine serum albumin (fraction V) and cultured for 3 days. The culture was further continued with medium changes every 3 days. After cells were practically synchronized in the quiscent stage, the medium was changed to 0.5 ml of the same medium and containing a prescribed concentration of test sample as illustrated in the Tables. NGF in the medium after cultivating for 24 hours was determined by the ELISA as mentioned above. Data are expressed as fold increase in NGF content over that in the absence of the test sample. The lower detection limit of the ELISA is 0.25 pg/ml and the NGF content of control medium was normally 1-10 pg/0.5 ml/well. Data are presented as the mean of four determinations. The results are illustrated in Tables 1-5.
In the case of NC(=O)CCc1ccc(O)c(O)c1 [Compound 58], the fold induction at 200 µM is reported as 5.32.

Same assay, conditions: Mus musculus, 24 h, Table 4, sample concentration 0.4 mM, fold increase over control, read-out: NGF Increase Ratio
For CCOC(=O)CCc1ccc(OC(C)=O)c(OC(C)=O)c1 [Compound 47, Ethyl 3,4-diacetoxyphenylpropionate], the fold induction at 400 µM was 5.11.
CC(=O)Oc1ccc(CCC(=O)N(C)C)cc1OC(C)=O [Compound 81] gave a fold induction at 400 µM of 6.33.
Compound CCNC(=O)CCc1ccc(OC(C)=O)c(OC(C)=O)c1 [Compound 74] has a fold induction at 400 µM of 6.53.

Same assay, conditions: Mus musculus, 24 h, Table 5, 0.4 mM, fold increase over control (1.00), read-out: NGF Astroglial Cell Increase Ratio
Work on CCCCCCNC(=O)CCc1ccc(OC(C)=O)c(OC(C)=O)c1 [Compound 88, N-n-Hexyl-3,4-diacetoxyphenylpropionamide] yielded a fold induction at 400 µM of 15.8.
In the case of CCCCNC(=O)CCc1ccc(O)c(O)c1 [Compound 84, N-n-Butyl-3,4-dihydroxyphenylpropionamide], the fold induction at 400 µM is reported as 33.1.
CN(Cc1ccccc1)C(=O)CCc1ccc(O)c(O)c1 [Compound 94, N-Methyl N-benzyl-3,4-dihydroxyphenylpropionamide] was tested, and the fold induction at 400 µM was 5.2.
In the case of O=C(CCc1ccc(O)c(O)c1)NC1CCCCC1 [Compound 93, N-Cyclohexyl-3,4-dihydroxyphenylpropionamide], the fold induction at 400 µM is reported as 9.9.
O=C(CCc1ccc(O)c(O)c1)N1CCN(C(c2ccccc2)c2ccccc2)CC1 [Compound 102, N-Diphenylmethyl-N'-[3-(3,4-dihydroxyphenyl)propionyl]piperazine] showed a fold induction at 400 µM of 10.1.
In the case of O=C(CCc1ccc(O)c(O)c1)N1CCCCC1 [Compound 97, N-[3-(3,4-Dihydroxyphenyl)propionyl]piperidine], the fold induction at 400 µM is reported as 13.7.
In the case of CCCCCNC(=O)CCc1ccc(O)c(O)c1 [Compound 86, N-n-Pentyl-3,4-dihydroxyphenylpropionamide], the fold induction at 400 µM is reported as 30.3.
With COC(=O)[C@@H]1CCCN1C(=O)CCc1ccc(O)c(O)c1 [Compound 103, N-[3-(3,4-dihydroxyphenyl)propionyl]-L-proline methyl ester] the fold induction at 400 µM was 6.3.
O=C(CCc1ccc(O)c(O)c1)N1CCN(Cc2ccccc2)CC1 [Compound 101, N-Benzyl-N'-[3-(3,4-dihydroxyphenyl)propionyl]piperazine] gave a fold induction at 400 µM of 9.6.

Same assay, conditions: Table 4, sample concentration 0.2 mM, 24 hours
With NC(=O)CCc1ccc(O)c(O)c1 [Compound 58] the “NGF Concentration” value was 230.0 ng/well.

Same assay, conditions: Table 4, sample concentration 0.4 mM, 24 hours
In the case of CCOC(=O)CCc1ccc(OC(C)=O)c(OC(C)=O)c1 [Compound 47, Ethyl 3,4-diacetoxyphenylpropionate], the “NGF Concentration” value is reported as 220.8 ng/well.
CC(=O)Oc1ccc(CCC(=O)N(C)C)cc1OC(C)=O [Compound 81] was tested, and the “NGF Concentration” value was 273.5 ng/well.
In the case of CCNC(=O)CCc1ccc(OC(C)=O)c(OC(C)=O)c1 [Compound 74], the “NGF Concentration” value is reported as 282.2 ng/well.

Same assay, conditions: Table 5, 0.4 mM, 24 hours, control 31.8
CCCCCCNC(=O)CCc1ccc(OC(C)=O)c(OC(C)=O)c1 [Compound 88, N-n-Hexyl-3,4-diacetoxyphenylpropionamide] was tested, and the “NGF Astroglial Cell Concentration” value was 257.5 ng/well.
For CCCCNC(=O)CCc1ccc(O)c(O)c1 [Compound 84, N-n-Butyl-3,4-dihydroxyphenylpropionamide], the “NGF Astroglial Cell Concentration” value was 539.5 ng/well.
In the case of CN(Cc1ccccc1)C(=O)CCc1ccc(O)c(O)c1 [Compound 94, N-Methyl N-benzyl-3,4-dihydroxyphenylpropionamide], the “NGF Astroglial Cell Concentration” value is reported as 84.8 ng/well.
In the case of O=C(CCc1ccc(O)c(O)c1)NC1CCCCC1 [Compound 93, N-Cyclohexyl-3,4-dihydroxyphenylpropionamide], the “NGF Astroglial Cell Concentration” value is reported as 161.4 ng/well.
For O=C(CCc1ccc(O)c(O)c1)N1CCN(C(c2ccccc2)c2ccccc2)CC1 [Compound 102, N-Diphenylmethyl-N'-[3-(3,4-dihydroxyphenyl)propionyl]piperazine], the “NGF Astroglial Cell Concentration” value was 321.2 ng/well.
In the case of O=C(CCc1ccc(O)c(O)c1)N1CCCCC1 [Compound 97, N-[3-(3,4-Dihydroxyphenyl)propionyl]piperidine], the “NGF Astroglial Cell Concentration” value is reported as 435.7 ng/well.
CCCCCNC(=O)CCc1ccc(O)c(O)c1 [Compound 86, N-n-Pentyl-3,4-dihydroxyphenylpropionamide] was tested, and the “NGF Astroglial Cell Concentration” value was 493.9 ng/well.
COC(=O)[C@@H]1CCCN1C(=O)CCc1ccc(O)c(O)c1 [Compound 103, N-[3-(3,4-dihydroxyphenyl)propionyl]-L-proline methyl ester] was tested, and the “NGF Astroglial Cell Concentration” value was 200.3 ng/well.
With O=C(CCc1ccc(O)c(O)c1)N1CCN(Cc2ccccc2)CC1 [Compound 101, N-Benzyl-N'-[3-(3,4-dihydroxyphenyl)propionyl]piperazine] the “NGF Astroglial Cell Concentration” value was 305.3 ng/well.

The compounds below were run on production and secretion of NGF in mouse L-M cells (assay: Promoting activity for the production and secretion of NGF in mouse L-M cells (ELISA of medium after 24 h)). Settings: Mus musculus, 24 h; Table 2; L-M cells; sample concentration 0.2 mM; fold increase over control (1.00); read-out: NGF Increase Ratio.
Format: cell-based
Compound CCOC(=O)CCc1ccc(OC(C)=O)c(OC(C)=O)c1 [Compound 47, Ethyl 3,4-diacetoxyphenylpropionate] has a fold induction at 200 µM of 6.29.
For CC(=O)Oc1ccc(CCC(=O)N(C)C)cc1OC(C)=O [Compound 81], the fold induction at 200 µM was 5.76.
Compound CCNC(=O)CCc1ccc(OC(C)=O)c(OC(C)=O)c1 [Compound 74] has a fold induction at 200 µM of 5.85.
In the case of NC(=O)CCc1ccc(O)c(O)c1 [Compound 58], the fold induction at 200 µM is reported as 5.53.

Same assay, conditions: Mus musculus, 24 h; Table 5; L-M cells; 0.4 mM; fold increase over control (1.00); read-out: NGF L-M Cell Increase Ratio
Work on CCCCCCNC(=O)CCc1ccc(OC(C)=O)c(OC(C)=O)c1 [Compound 88, N-n-Hexyl-3,4-diacetoxyphenylpropionamide] yielded a fold induction at 400 µM of 6.2.
For CCCCNC(=O)CCc1ccc(O)c(O)c1 [Compound 84, N-n-Butyl-3,4-dihydroxyphenylpropionamide], the fold induction at 400 µM was 6.2.
Compound CN(Cc1ccccc1)C(=O)CCc1ccc(O)c(O)c1 [Compound 94, N-Methyl N-benzyl-3,4-dihydroxyphenylpropionamide] has a fold induction at 400 µM of 5.1.
O=C(CCc1ccc(O)c(O)c1)NC1CCCCC1 [Compound 93, N-Cyclohexyl-3,4-dihydroxyphenylpropionamide] gave a fold induction at 400 µM of 6.
O=C(CCc1ccc(O)c(O)c1)N1CCN(C(c2ccccc2)c2ccccc2)CC1 [Compound 102, N-Diphenylmethyl-N'-[3-(3,4-dihydroxyphenyl)propionyl]piperazine] gave a fold induction at 400 µM of 5.1.
O=C(CCc1ccc(O)c(O)c1)N1CCCCC1 [Compound 97, N-[3-(3,4-Dihydroxyphenyl)propionyl]piperidine] was tested, and the fold induction at 400 µM was 6.2.
With CCCCCNC(=O)CCc1ccc(O)c(O)c1 [Compound 86, N-n-Pentyl-3,4-dihydroxyphenylpropionamide] the fold induction at 400 µM was 6.5.
COC(=O)[C@@H]1CCCN1C(=O)CCc1ccc(O)c(O)c1 [Compound 103, N-[3-(3,4-dihydroxyphenyl)propionyl]-L-proline methyl ester] showed a fold induction at 400 µM of 4.3.
Compound O=C(CCc1ccc(O)c(O)c1)N1CCN(Cc2ccccc2)CC1 [Compound 101, N-Benzyl-N'-[3-(3,4-dihydroxyphenyl)propionyl]piperazine] has a fold induction at 400 µM of 5.2.

Same assay, conditions: Table 2; L-M cells; sample concentration 0.2 mM; 24 hours; mean of four determinations; control 0.34
With CCOC(=O)CCc1ccc(OC(C)=O)c(OC(C)=O)c1 [Compound 47, Ethyl 3,4-diacetoxyphenylpropionate] the “NGF Concentration” value was 2.14 ng/well.
For CC(=O)Oc1ccc(CCC(=O)N(C)C)cc1OC(C)=O [Compound 81], the “NGF Concentration” value was 1.96 ng/well.
CCNC(=O)CCc1ccc(OC(C)=O)c(OC(C)=O)c1 [Compound 74] was tested, and the “NGF Concentration” value was 1.93 ng/well.
NC(=O)CCc1ccc(O)c(O)c1 [Compound 58] was tested, and the “NGF Concentration” value was 1.88 ng/well.

Same assay, conditions: Table 5; L-M cells; 0.4 mM; 24 hours; control 0.87
In the case of CCCCCCNC(=O)CCc1ccc(OC(C)=O)c(OC(C)=O)c1 [Compound 88, N-n-Hexyl-3,4-diacetoxyphenylpropionamide], the “NGF L-M Cell Concentration” value is reported as 5.39 ng/well.
For CCCCNC(=O)CCc1ccc(O)c(O)c1 [Compound 84, N-n-Butyl-3,4-dihydroxyphenylpropionamide], the “NGF L-M Cell Concentration” value was 5.39 ng/well.
In the case of CN(Cc1ccccc1)C(=O)CCc1ccc(O)c(O)c1 [Compound 94, N-Methyl N-benzyl-3,4-dihydroxyphenylpropionamide], the “NGF L-M Cell Concentration” value is reported as 4.44 ng/well.
In the case of O=C(CCc1ccc(O)c(O)c1)NC1CCCCC1 [Compound 93, N-Cyclohexyl-3,4-dihydroxyphenylpropionamide], the “NGF L-M Cell Concentration” value is reported as 5.22 ng/well.
For O=C(CCc1ccc(O)c(O)c1)N1CCN(C(c2ccccc2)c2ccccc2)CC1 [Compound 102, N-Diphenylmethyl-N'-[3-(3,4-dihydroxyphenyl)propionyl]piperazine], the “NGF L-M Cell Concentration” value was 4.44 ng/well.
With O=C(CCc1ccc(O)c(O)c1)N1CCCCC1 [Compound 97, N-[3-(3,4-Dihydroxyphenyl)propionyl]piperidine] the “NGF L-M Cell Concentration” value was 5.39 ng/well.
In the case of CCCCCNC(=O)CCc1ccc(O)c(O)c1 [Compound 86, N-n-Pentyl-3,4-dihydroxyphenylpropionamide], the “NGF L-M Cell Concentration” value is reported as 5.66 ng/well.
With COC(=O)[C@@H]1CCCN1C(=O)CCc1ccc(O)c(O)c1 [Compound 103, N-[3-(3,4-dihydroxyphenyl)propionyl]-L-proline methyl ester] the “NGF L-M Cell Concentration” value was 3.74 ng/well.
For O=C(CCc1ccc(O)c(O)c1)N1CCN(Cc2ccccc2)CC1 [Compound 101, N-Benzyl-N'-[3-(3,4-dihydroxyphenyl)propionyl]piperazine], the “NGF L-M Cell Concentration” value was 4.52 ng/well.
